Test results: patent US20160002596A1, “COMPOSITION FOR EX VIVO CULTURING OF A CORNEAL ENDOTHELIAL CELL AND A METHOD FOR USING THE COMPOSITION” (National Taiwan University, priority 2014, published 2016)

Columns and labels:
Type in all cases: cell-based, bovine
[1] = test system: corneal endothelial cells; experiment: Growth / proliferation of ex vivo cultured corneal endothelial cells
Text: Y-27632 is a known growth stimulator for corneal endothelial cells that is able to increase the ex vivo cell proliferation.

[2] = test system: corneal endothelial cells; experiment: Phenotype (cell shape) of ex vivo cultured corneal endothelial cells, immunofluorescence staining against active beta-catenin
[3] = test system: active beta-catenin (ABC); experiment: Western blot of active beta-catenin (ABC) expression in corneal endothelial cells
Procedure: With reference to FIG. 5, FIG. 5 was the Western blot analysis showing the expression level of active beta-catenin (ABC) in corneal endothelial cells treated with different concentrations of Marimastat or ADAM10 (ADAM metallopeptidase domain 10) specific inhibitor GI254023X. In group 1-3, the corneal endothelial cells were incubated in the SHEM added with 100 nM, 1 uM or 10 uM of GI254023X, respectively. In group 4-6, cells were incubated in the SHEM added with 100 nM, 1 uM or 10 uM of Marimastat, respectively. In group 1-3, there was no reduction in the expression level of ABC in the presence of ADAM10 specific inhibitor, GI254023X. In group 4, ABC expression level was high despite 100 nM of Marimastat.

C[C@@H](N)[C@H]1CC[C@H](C(=O)Nc2ccncc2)CC1 [Y-27632]
proliferation of corneal endothelial cells ([1]; group 3 or 5: SHEM with 10 uM Y-27632): enhanced proliferation
cell shape of cultured corneal endothelial cells ([2]; group 3 or 5: SHEM with 10 uM Y-27632 (9 days, or first 3 days only)): elongated and fibroblast-like

CNC(=O)[C@@H](NC(=O)[C@H](CC(C)C)[C@H](O)C(=O)NO)C(C)(C)C [Marimastat]
cell growth of corneal endothelial cells ([1]; groups 2, 4 and 6: 10 uM MMPI added in the SHEM): not obviously inhibited or reduced
expression level of active beta-catenin (ABC) ([3]; group 4: 100 nM in SHEM): high
expression level of active beta-catenin (ABC) ([3]; more than 1 uM in SHEM (groups 5-6: 1 uM, 10 uM)): significantly reduced
cell morphology of cultured corneal endothelial cells ([2]; group 2 or 4: SHEM with 10 uM MMPI (without or with 10 uM Y-27632) for 9 days): maintained hexagonal morphology

CNC(=O)[C@@H](NC(=O)[C@H](CCCc1ccccc1)[C@H](C)N(O)C=O)C(C)(C)C [GI254023X]
expression level of active beta-catenin (ABC) ([3]; group 1-3: 100 nM, 1 uM or 10 uM in SHEM): no reduction
